Source: patent US12091425B2 (AMGEN INC., priority 2016, dated 2024)

Legend:
[1] = test system: OPM-2 human multiple myeloma cell line; experiment: Cell Viability Assay (OPM-2 10 FBS); format: cell-based; conditions: OPM-2 cells, CellTiter-Glo
Summary of the method: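 ATP-based luminescence (CellTiter-Glo) measured after a 16 h compound treatment of OPM-2 cells seeded at 3000 cells/well in 10% FBS medium. IC50 values derived by 4-parameter logistic fitting of serial dilutions.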

[2] = biological target: T1, Mcl-1/Bim interaction, recombinant human Mcl-1 (171-327) (Homo sapiens, UniProt Q07820); experiment: Cell free Mcl-1: Bim Affinity Assay (Mcl-1 HTRF); format: binding
T1 construct: made in house
T1 sequence (Q07820 171-327): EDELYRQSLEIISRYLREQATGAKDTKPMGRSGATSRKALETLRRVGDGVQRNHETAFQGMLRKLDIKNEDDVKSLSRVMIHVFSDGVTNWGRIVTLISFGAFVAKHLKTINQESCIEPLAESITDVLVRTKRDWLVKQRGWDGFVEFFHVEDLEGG
Summary of the method: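 TR-FRET competition assay with biotinylated human Bim peptide (residues 51-76); reaction plates incubated overnight before reading. IC50 values came from duplicate data fitted to a four-parameter sigmoidal competition curve.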

[3] = Homo sapiens, OPM-2, 16 h, 16 h incubation
[4] = TR-FRET, 0.1 nM Mcl-1 (171-327), 0.05 nM biotin-Bim (51-76)
[5] = Homo sapiens, OPM-2, 16 h, 16 h
[6] = cell free Mcl-1:Bim TR-FRET, recombinant human Mcl-1 (171-327)

Compound | IC50 [2, 4] [nM] | IC50 [1, 5] [nM] | IC50 [2, 6] [nM] | IC50 ([1]; 16 h) [nM] | further results
CS(=O)(=O)CCN1CC/C=C/[C@H](O)[C@@H]2CC[C@H]2CN2C[C@@]3(CCCc4cc(Cl)ccc43)COc3ccc(cc32)C(=O)NS1(=O)=O [Example 34, (1S,3′R,6′R,7′S,8′E)-6-chloro-7′-hydroxy-12′-(2-(methylsulfonyl)ethyl)-3,4-dihydro-2H,15′H-spiro[naphthalene-1,22′-[20]oxa[13]thia[1,12,14]triazatetracyclo[14.7.2.0^3,6.0^19,24]pentacosa[8,16,18,24]tetraen]-15′-one 13′,13′-dioxide] | 0.62 | 3600 |  |  | 
O=C1NS(=O)(=O)[C@H](Cc2nccs2)CC/C=C/[C@H](O)[C@@H]2CC[C@H]2CN2C[C@@]3(CCCc4cc(Cl)ccc43)COc3ccc1cc32 (single isomer, unassigned) [Example 373] | 0.731 |  |  | 404 | 
CC[C@H](O[C@H]1/C=C/C[C@H](C)[C@@H](C)S(=O)(=O)NC(=O)c2ccc3c(c2)N(C[C@@H]2CC[C@H]21)C[C@@]1(CCCc2cc(Cl)ccc21)CO3)C(=O)N(C)C (single isomer, unassigned) [Example 430] | 0.743 |  |  | 216 | 
Cn1cnc(CO[C@H]2/C=C/C[C@@H]3CCC[C@H]3S(=O)(=O)NC(=O)c3ccc4c(c3)N(C[C@@H]3CC[C@H]32)C[C@@]2(CCCc3cc(Cl)ccc32)CO4)n1 (single isomer, unassigned) [Example 328] | 0.44 |  |  | 428 | 
CO[C@H]1C/C=C/[C@H](O)[C@@H]2CC[C@H]2CN2C[C@@]3(CCCc4cc(Cl)ccc43)COc3ccc(cc32)C(=O)NS(=O)(=O)[C@@H]1CC1CC1 (single isomer, unassigned) [Example 575] |  |  | 3.21 | 2070 | 
C[C@@H]1[C@@H](C)/C=C/[C@H](O)[C@@H]2CC[C@H]2CN2C[C@@]3(CCCc4cc(Cl)ccc43)COc3ccc(cc32)C(=O)NS1(=O)=O (single isomer, unassigned) [Example 166] | 0.418 |  |  | 2070 | 
O=C1NS(=O)(=O)[C@H](c2ccccn2)CC/C=C/[C@H](O)[C@@H]2CC[C@H]2CN2C[C@@]3(CCCc4cc(Cl)ccc43)COc3ccc1cc32 (single isomer, unassigned) [Example 693] |  |  | 0.235 | 742 | 
CC[C@@H]1CC/C=C/[C@H](O[C@H](C)C(=O)O)[C@@H]2CC[C@H]2CN2C[C@@]3(CCCc4cc(Cl)ccc43)COc3ccc(cc32)C(=O)NS1(=O)=O [Example 1005] | 0.157 |  |  |  | IC50 ([1]; 16 h incubation): 4110 nM
CO[C@H]1/C=C/CC[C@@H](CCS(=O)(=O)C(C)(C)C)S(=O)(=O)NC(=O)c2ccc3c(c2)N(C[C@@H]2CC[C@H]21)C[C@@]1(CCCc2cc(Cl)ccc21)CO3 (single isomer, unassigned) [Example 156] | 0.831 |  |  | 266 | 
COC(=O)CC1C(C)CC=CC(OC)C2CCC2CN2CC3(CCCc4cc(Cl)ccc43)COc3ccc(cc32)C(=O)NS1(=O)=O (single isomer, unassigned) [Example 576] |  |  | 0.382 | 220 | 
C[C@@H]1[C@@H](C)C/C=C/[C@H](OCC(=O)N2CC(N3CCCC3)C2)[C@@H]2CC[C@H]2CN2C[C@@]3(CCCc4cc(Cl)ccc43)COc3ccc(cc32)C(=O)NS1(=O)=O [Example 309, (1S,3′R,6′R,7′S,8′E,11′S,12′R)-6-chloro-11′,12′-dimethyl-7′-(2-oxo-2-(3-(1-pyrrolidinyl)-1-azetidinyl)ethoxy)-3,4-dihydro-2H,15′H-spiro[naphthalene-1,22′-[20]oxa[13]thia[1,14]diazatetracyclo[14.7.2.0^3,6.0^19,24]pentacosa [8,16,18,24]tetraen]-15′-one 13′,13′-dioxide] | 0.0805 | 414 |  |  | 
CNC(=O)CN1CC/C=C/[C@H](O)[C@@H]2CC[C@H]2CN2C[C@@]3(CCCc4cc(Cl)ccc43)COc3ccc(cc32)C(=O)NS1(=O)=O [Example 23, 2-((1S,3′R,6′R,7′S,8′E)-6-chloro-7′-hydroxy-13′,13′-dioxido-15′-oxo-3,4-dihydro-2H,12′H-spiro[naphthalene-1,22′-[20]oxa[13]thia[1,12,14]triazatetracyclo[14.7.2.0^3,6.0^19,24]pentacosa[8,16,18,24]tetraen]-12′-yl)-N-methylacetamide] | 0.314 | 3210 |  |  | 
CO[C@H]1/C=C/C[C@H](CO)[C@@H](C)S(=O)(=O)NC(=O)c2ccc3c(c2)N(C[C@@H]2CC[C@H]21)C[C@@]1(CCCc2cc(Cl)ccc21)CO3 [Example 1, (1S,3′R,6′R,7′S,8′E,11′R,12′R)-6-chloro-11′-(hydroxymethyl)-7′-methoxy-12′-methyl-3,4-dihydro-2H,15′H-spiro[naphthalene-1,22′-[20]oxa[13]thia[1,14]diazatetracyclo[14.7.2.0^3,6.0^19,24]pentacosa [8,16,18,24]tetraen]-15′-one 13′,13′-dioxide] | 0.34 | 254 |  |  | 
CC12CC=CC(O)C3CCC3CN3CC4(CCCc5cc(Cl)ccc54)COc4ccc(cc43)C(=O)NS(=O)(=O)C1CCC2 (single isomer, unassigned) [Example 133] | 2 | 2750 |  |  | 

The next lines start with results.

IC50 [2, 4] [nM] | IC50 [1, 5] [nM] | IC50 [2, 6] [nM] | Compound | IC50 ([1]; 16 h) [nM] | further results
0.448 |  |  | CC[C@@H]1CC/C=C/[C@H](OCC(=O)NCCN2CCOCC2)[C@@H]2CC[C@H]2CN2C[C@@]3(CCCc4cc(Cl)ccc43)COc3ccc(cc32)C(=O)NS1(=O)=O [Example 1002, 2-(((1S,3′R,6′R,7′S,8′E,12′R)-6-chloro-12′-ethyl-13′,13′-dioxido-15′-oxo-3,4-dihydro-2H-spiro[naphthalene-1,22′-[20]oxa[13]thia[1,14]diazatetracyclo[14.7.2.0^3,6.0^19,24]pentacosa [8,16,18,24]tetraen]-7′-yl)oxy)-N-(2-(4-morpholinyl)ethyl)acetamide] |  | IC50 [1, 3]: 1220 nM
0.416 | 122 |  | COCCOC1C=CCC(C)C(COC)S(=O)(=O)NC(=O)c2ccc3c(c2)N(CC2CCC21)CC1(CCCc2cc(Cl)ccc21)CO3 (single isomer, unassigned) [Example 463] |  | 
9.49 | 14600 |  | C[C@@H]1[C@@H](C)C=C/C=C/[C@@H]2CC[C@H]2CN2C[C@@]3(CCCc4cc(Cl)ccc43)COc3ccc(cc32)C(=O)NS1(=O)=O (stereo in doubt) [Example 372, (1S,3′R,6′S,7′E,9′E,11′S,12′R)-6-chloro-11′,12′-dimethyl-3,4-dihydro-2H,15′H-spiro[naphthalene-1,22′-[20]oxa[13]thia[1,14]diazatetracyclo[14.7.2.0^3,6.0^19,24]pentacosa [7,9,16,18,24]pentaen]-15′-one 13′,13′-dioxide] |  | 
0.711 |  |  | CC1C=CC(O)C2CCC2CN2CC3(CCCc4cc(Cl)ccc43)COc3ccc(cc32)C(=O)NS(=O)(=O)CC1C (single isomer, unassigned) [Example 1061] |  | IC50 [1, 3]: 1110 nM
 | 587 | 1.25 | C[C@@H]1[C@@H](C)C/C=C/[C@H](OC[C@H]2CCCO2)[C@@H]2CC[C@H]2CN2C[C@@]3(CCCc4cc(Cl)ccc43)COc3ccc(cc32)C(=O)NS1(=O)=O [Example 510, (1S,3′R,6′R,7′S,8′E,11′S,12′R)-6-chloro-11′,12′-dimethyl-7′-((2R)-tetrahydro-2-furanylmethoxy)-3,4-dihydro-2H,15′H-spiro[naphthalene-1,22′-[20]oxa[13]thia[1,14]diazatetracyclo[14.7.2.0^3,6.0^19,24]pentacosa [8,16,18,24]tetraen]-15′-one 13′,13′-dioxide] |  | 
 | 616 | 18.3 | CC[C@@H]1CC/C=C\C(=O)[C@@H]2CC[C@H]2CN2C[C@@]3(CCCc4cc(Cl)ccc43)COc3ccc(cc32)C(=O)NS1(=O)=O (single isomer, unassigned) [Example 885] |  | 
 | 11600 | 17 | CC1CC=CC(O)C2CCC2CN2CC3(CCCc4cc(Cl)ccc43)COc3ccc(cc32)C(=O)NS(=O)(=O)N1Cc1ccccn1 (single isomer, unassigned) [Example 668] |  | 
 | 7290 | 0.582 | C[C@@H](O)C[C@@H]1CC/C=C\[C@H](O)[C@@H]2CC[C@H]2CN2C[C@@]3(CCCc4cc(Cl)ccc43)COc3ccc(cc32)C(=O)NS1(=O)=O (single isomer, unassigned) [Example 550] |  | 
0.872 |  |  | CC[C@@H]1CC/C=C/[C@H](OCC(=O)NCCN(C)C)[C@@H]2CC[C@H]2CN2C[C@@]3(CCCc4cc(Cl)ccc43)COc3ccc(cc32)C(=O)NS1(=O)=O [Example 995, 2-(((1S,3′R,6′R,7′S,8′E,12′R)-6-chloro-12′-ethyl-13′,13′-dioxido-15′-oxo-3,4-dihydro-2H-spiro[naphthalene-1,22′-[20]oxa[13]thia[1,14]diazatetracyclo[14.7.2.0^3,6.0^19,24]pentacosa [8,16,18,24]tetraen]-7′-yl)oxy)-N-(2-(dimethylamino)ethyl)acetamide] |  | IC50 [1, 3]: 1680 nM
 | 14200 | 0.583 | CC[N+](CC)(CC)CCO[C@H]1/C=C/C[C@H](C)[C@@H](C)S(=O)(=O)NC(=O)c2ccc3c(c2)N(C[C@@H]2CC[C@H]21)C[C@@]1(CCCc2cc(Cl)ccc21)CO3 [Example 533, 2-(((1S,3′R,6′R,7′S,8′E,11′S,12′R)-6-chloro-11′,12′-dimethyl-13′,13′-dioxido-15′-oxo-3,4-dihydro-2H-spiro[naphthalene-1,22′-[20]oxa[13]thia[1,14]diazatetracyclo[14.7.2.0^3,6.0^19,24]pentacosa [8,16,18,24]tetraen]-7′-yl)oxy)-N,N,N-triethylethanaminium 2,2,2-trifluoroacetate] |  | 
